Data on one compound can be found in publication PMC11513923, “Discovery of ZLC491 as a Potent, Selective, and Orally Bioavailable CDK12/13 PROTAC Degrader” (Journal of Medicinal Chemistry, 2024).

One assay deals with T1, CDK13 (Homo sapiens, UniProt Q14004).
T1 construct: Immunoblotting of CDK12 and CDK13 in MDA-MB-231 cells treated with increasing concentrations of ZLC491 for 15 h; endogenous in cells; host or cells: MDA-MB-231
The assay is described as follows: CDK13 degradation in MDA-MB-231 cells by immunoblotting.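 As to Protein Degradation (%DMSO control, 0.3 μM) CDK13: percent of CDK13 protein degraded relative to DMSO control.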 It is filed as cell-based. The gist of the method:
(§1)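 MDA-MB-231 cells treated with ZLC491 at increasing concentrations for 15 h (screening at 0.3 μM; time course at 1 μM); SDS lysates immunoblotted, band intensities normalised to α-tubulin. DC50 taken from percent remaining protein versus concentration; representative of three independent experiments.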

For the next assay, the target named is CDK12 (Homo sapiens, UniProt Q9NYV4). Kind of assay: CDK12 degradation in MDA-MB-231 cells by immunoblotting. Further details: Immunoblotting of CDK12 and CDK13 in MDA-MB-231 cells treated with increasing concentrations of ZLC491 for 15 h; endogenous in cells; host or cells: MDA-MB-231. It is filed as cell-based. The essentials:
as §1
For orientation: A western blot detects proteins with antibodies after separation by electrophoresis.

Where [1] appears, read: MDA-MB-231 cells, 0.3 μM, 15 h, immunoblotting, normalized against α-tubulin.

What is called DC50 is the midpoint of the concentration-degradation curve. A lower DC50 goes with degradation at low concentration.

Sequence of CDK12 (Q9NYV4 whole entry): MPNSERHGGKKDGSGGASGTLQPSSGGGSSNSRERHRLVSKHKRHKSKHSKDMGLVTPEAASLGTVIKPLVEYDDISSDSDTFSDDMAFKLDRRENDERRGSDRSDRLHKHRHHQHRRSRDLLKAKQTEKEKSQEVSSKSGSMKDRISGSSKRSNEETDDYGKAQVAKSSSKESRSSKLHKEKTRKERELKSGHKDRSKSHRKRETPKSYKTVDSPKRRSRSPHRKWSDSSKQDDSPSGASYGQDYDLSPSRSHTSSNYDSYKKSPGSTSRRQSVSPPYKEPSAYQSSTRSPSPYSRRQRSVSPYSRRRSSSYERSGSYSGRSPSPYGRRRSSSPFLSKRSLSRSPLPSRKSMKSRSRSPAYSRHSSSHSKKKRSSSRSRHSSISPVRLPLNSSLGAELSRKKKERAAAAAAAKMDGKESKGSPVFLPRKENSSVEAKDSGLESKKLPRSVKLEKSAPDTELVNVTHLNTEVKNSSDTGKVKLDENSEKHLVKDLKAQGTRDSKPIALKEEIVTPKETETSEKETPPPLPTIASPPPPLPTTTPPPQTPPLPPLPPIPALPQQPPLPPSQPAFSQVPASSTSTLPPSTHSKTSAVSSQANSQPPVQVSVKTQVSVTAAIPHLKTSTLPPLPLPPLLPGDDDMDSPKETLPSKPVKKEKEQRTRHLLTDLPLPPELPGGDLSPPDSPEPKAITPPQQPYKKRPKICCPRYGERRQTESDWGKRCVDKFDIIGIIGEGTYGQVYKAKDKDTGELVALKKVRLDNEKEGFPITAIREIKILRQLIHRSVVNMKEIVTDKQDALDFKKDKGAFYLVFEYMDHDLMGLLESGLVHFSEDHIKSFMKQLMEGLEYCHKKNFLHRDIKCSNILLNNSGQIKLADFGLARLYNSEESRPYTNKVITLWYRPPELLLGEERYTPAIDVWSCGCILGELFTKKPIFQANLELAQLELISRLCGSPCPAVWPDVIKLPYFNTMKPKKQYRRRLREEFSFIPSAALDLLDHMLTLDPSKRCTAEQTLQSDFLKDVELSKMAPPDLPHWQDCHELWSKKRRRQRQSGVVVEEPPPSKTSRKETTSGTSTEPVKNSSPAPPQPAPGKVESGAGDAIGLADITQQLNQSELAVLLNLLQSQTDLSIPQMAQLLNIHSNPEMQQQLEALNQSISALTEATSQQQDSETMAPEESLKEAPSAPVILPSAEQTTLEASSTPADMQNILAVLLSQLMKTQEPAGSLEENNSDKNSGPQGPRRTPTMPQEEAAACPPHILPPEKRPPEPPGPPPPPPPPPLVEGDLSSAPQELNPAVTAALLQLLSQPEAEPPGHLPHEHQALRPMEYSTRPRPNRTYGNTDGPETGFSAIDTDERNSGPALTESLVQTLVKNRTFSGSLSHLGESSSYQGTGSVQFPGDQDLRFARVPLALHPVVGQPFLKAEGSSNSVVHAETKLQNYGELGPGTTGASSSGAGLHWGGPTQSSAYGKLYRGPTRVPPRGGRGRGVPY
Sequence of CDK12 (O75909 whole entry partner): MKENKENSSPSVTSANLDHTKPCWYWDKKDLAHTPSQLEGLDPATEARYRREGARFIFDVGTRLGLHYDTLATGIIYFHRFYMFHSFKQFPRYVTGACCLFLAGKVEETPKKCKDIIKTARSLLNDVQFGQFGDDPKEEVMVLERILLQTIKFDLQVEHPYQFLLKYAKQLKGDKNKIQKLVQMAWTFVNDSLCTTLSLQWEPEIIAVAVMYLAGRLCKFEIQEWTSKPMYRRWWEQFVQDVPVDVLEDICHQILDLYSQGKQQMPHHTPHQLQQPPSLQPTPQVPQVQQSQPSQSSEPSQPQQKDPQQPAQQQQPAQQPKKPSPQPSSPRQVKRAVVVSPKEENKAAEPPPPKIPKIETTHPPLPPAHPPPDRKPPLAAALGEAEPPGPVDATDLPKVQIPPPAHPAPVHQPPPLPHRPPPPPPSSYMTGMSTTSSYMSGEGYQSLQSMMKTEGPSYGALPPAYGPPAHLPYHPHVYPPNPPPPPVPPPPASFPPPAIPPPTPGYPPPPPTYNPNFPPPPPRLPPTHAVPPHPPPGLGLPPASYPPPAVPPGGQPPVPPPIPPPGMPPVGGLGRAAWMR
T1 sequence (Q14004 whole entry): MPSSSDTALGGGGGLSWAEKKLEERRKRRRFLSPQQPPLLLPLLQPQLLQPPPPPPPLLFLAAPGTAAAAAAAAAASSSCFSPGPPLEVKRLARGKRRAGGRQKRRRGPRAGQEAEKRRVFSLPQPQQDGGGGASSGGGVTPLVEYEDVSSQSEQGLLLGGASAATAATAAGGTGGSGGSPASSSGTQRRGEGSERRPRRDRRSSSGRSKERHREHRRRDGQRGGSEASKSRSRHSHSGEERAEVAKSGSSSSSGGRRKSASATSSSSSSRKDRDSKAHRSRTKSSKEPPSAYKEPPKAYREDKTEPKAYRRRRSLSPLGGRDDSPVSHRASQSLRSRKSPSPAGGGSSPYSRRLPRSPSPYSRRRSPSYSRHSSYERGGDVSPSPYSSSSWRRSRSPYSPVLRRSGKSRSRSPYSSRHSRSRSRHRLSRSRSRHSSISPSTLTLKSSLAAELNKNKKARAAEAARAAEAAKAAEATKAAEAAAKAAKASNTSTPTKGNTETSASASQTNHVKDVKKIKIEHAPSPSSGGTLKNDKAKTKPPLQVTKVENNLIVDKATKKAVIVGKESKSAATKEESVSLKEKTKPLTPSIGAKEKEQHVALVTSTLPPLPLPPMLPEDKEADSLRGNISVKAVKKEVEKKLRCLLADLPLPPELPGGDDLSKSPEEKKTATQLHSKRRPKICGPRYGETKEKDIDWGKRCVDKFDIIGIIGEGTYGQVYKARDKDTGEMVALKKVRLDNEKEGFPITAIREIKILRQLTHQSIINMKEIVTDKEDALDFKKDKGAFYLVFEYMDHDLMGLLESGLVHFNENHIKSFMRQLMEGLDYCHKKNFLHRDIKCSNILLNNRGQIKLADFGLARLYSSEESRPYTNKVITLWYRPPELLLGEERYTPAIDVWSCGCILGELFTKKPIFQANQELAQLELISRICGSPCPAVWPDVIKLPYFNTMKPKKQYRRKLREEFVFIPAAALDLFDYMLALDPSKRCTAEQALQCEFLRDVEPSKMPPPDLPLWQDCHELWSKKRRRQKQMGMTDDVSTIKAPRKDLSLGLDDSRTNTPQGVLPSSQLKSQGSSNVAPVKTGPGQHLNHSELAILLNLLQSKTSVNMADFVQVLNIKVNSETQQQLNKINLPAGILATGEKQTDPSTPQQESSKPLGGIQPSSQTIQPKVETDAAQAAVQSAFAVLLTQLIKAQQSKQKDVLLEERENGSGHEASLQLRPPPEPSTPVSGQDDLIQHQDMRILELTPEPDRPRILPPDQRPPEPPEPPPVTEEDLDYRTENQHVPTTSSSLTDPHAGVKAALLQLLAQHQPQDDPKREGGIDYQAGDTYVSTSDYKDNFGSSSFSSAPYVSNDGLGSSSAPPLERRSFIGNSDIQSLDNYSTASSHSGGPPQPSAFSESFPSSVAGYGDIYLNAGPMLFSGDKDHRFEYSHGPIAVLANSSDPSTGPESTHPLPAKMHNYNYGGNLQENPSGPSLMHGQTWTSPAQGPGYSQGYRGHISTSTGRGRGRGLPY
T1 sequence (O75909 whole entry partner): as the sequence (O75909 whole entry partner) above

With `N#Cc1ccc(N[C@H]2CC[C@H](N(C(=O)NCc3ccccc3)c3ccc(N4CCN(C5CCN(c6cc7c(cc6F)C(=O)N(C6CCC(=O)NC6=O)C7=O)CC5)CC4)cc3)CC2)nc1` (stereo partly shown) [ZLC491, 3-Benzyl-1-((1r,4r)-4-((5-cyanopyridin-2-yl)amino)cyclohexyl)-1-(4-(4-(1-(2-(2,6-dioxopiperidin-3-yl)-6-fluoro-1,3-dioxoisoindolin-5-yl)piperidin-4-yl)piperazin-1-yl)phenyl)urea], on CDK13 (2 μM, 8 h, MDA-MB-231), the “CDK13 degradation, immunoblotting of the proteomic samples” value is recorded as “significantly degraded”. Besides, the “Protein Degradation (%DMSO control, 0.3 μM) CDK13” value at CDK13 (setting [1]) turned out to be 90%. In addition, the DC50 at CDK13 (MDA-MB-231 cells, 15 h) stood at 28 nM; at CDK12 (MDA-MB-231 cells, 15 h), 32 nM. Further, on CDK13 (supplementary CSV, 0.3 μM), the Degradation rates of CDK13 at 0.3 μM came out at 90%. The “Protein Degradation (%DMSO control, 0.3 μM) CDK12” value at CDK12 (setting [1]) worked out at 85%. On CDK12 (supplementary CSV, 0.3 μM), this compound came in with a Degradation rates of CDK12 at 0.3 μM of 85%.
